Test results taken from patent publication US10681909B2, “Herbicidal triazoles” (FMC Corporation, priority 2014, dated 2020).

Legend:
[1] = tested on: wheat, winter; test: Test D preemergence; format: in vivo, Triticum aestivum; details: for Plant response rating: Wheat, Winter: scale 0 to 100
From the text: (§1) Seeds of plant species selected from bluegrass (annual bluegrass, Poa annua), blackgrass (Alopecurus myosuroides), canarygrass (Phalaris minor), chickweed (common chickweed, Stellaria media), galium (catchweed bedstraw, Galium aparine), bromegrass, down (downy bromegrass, Bromus tectorum), Russian thistle (Salsola kali), field poppy (Papaver rhoeas), field violet (Viola arvensis), foxtail, green (green foxtail, Setaria viridis), deadnettle (henbit deadnettle, Lamium amplexicaule), ryegrass, Ital. (Italian ryegrass, Lolium multiflorum), kochia (Kochia scoparia), lambsquarters (Chenopodium album), oilseed rape (Brassica napus), pigweed (Amaranthus retroflexus), chamomile (scentless chamomile, Matricaria inodora), speedwell (bird's-eye speedwell, Veronica persica), barley, spring (spring barley, Hordeum vulgare), wheat, spring (spring wheat, Triticum aestivum), buckwheat, wild (wild buckwheat, Polygonum convolvulus), wild mustard (Sinapis arvensis), oat, wild (wild oat, Avena fatua), radish, wild (wild radish, Raphanus raphanistrum), […]), barley, winter (winter barley, Hordeum vulgare), and wheat, winter (winter wheat, Triticum aestivum) were planted into a silt loam soil and treated preemergence with test chemicals formulated in a non-phytotoxic solvent mixture which included a surfactant. At the same time, these species were planted in pots containing Sunshine Redi-Earth® planting medium comprising spaghnum peat moss, vermiculite, starter nutrients and dolomitic limestone and treated with postemergence applications of the test chemicals formulated in the same manner. Plants ranged in height from 2 to 18 cm (1- to 4-leaf stage). Treated plants and controls were maintained in a controlled growth environment for 14 to 21 d after which time all species were compared to controls and visually evaluated. […] A dash (-) response means no test result.

[2] = tested on: wheat, spring; test: Test D preemergence; format: in vivo, Triticum aestivum; details: for Plant response rating: Wheat, Spring: scale 0 to 100
From the text: as §1

[3] = tested on: lambsquarters; test: Test D preemergence; format: in vivo, Chenopodium album; details: for Plant response rating: Lambsquarters: scale 0 to 100
From the text: as §1

[4] = tested on: oilseed rape; test: Test D preemergence; format: in vivo, Brassica napus; details: for Plant response rating: Oilseed Rape: scale 0 to 100
From the text: as §1

[5] = tested on: galium; test: Test A postemergence; format: in vivo, Galium aparine; details: 0 to 100 scale (0 no effect, 100 complete control), approx. 10 d
In short: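 Visual injury score, 0 (no effect) to 100 (complete control), taken about 10 d after treatment against untreated greenhouse controls. Chemicals formulated in non-phytotoxic solvent plus surfactant; preemergence by directed soil spray onto sown loam/sand, postemergence onto one- to two-leaf plants.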

[6] = tested on: galium; test: Test D postemergence; format: in vivo, Galium aparine; details: scale 0 to 100
From the text: as §1

[7] = tested on: wheat, winter; test: Test D postemergence; format: in vivo, Triticum aestivum; details: scale 0 to 100
From the text: as §1

[8] = tested on: wheat, spring; test: Test D postemergence; format: in vivo, Triticum aestivum; details: scale 0 to 100
From the text: as §1

[9] = tested on: barley, winter; test: Test D postemergence; format: in vivo, Hordeum vulgare; details: scale 0 to 100
From the text: as §1

[10] = tested on: barley, spring; test: Test D postemergence; format: in vivo, Hordeum vulgare; details: scale 0 to 100
From the text: as §1

[11] = tested on: waterhemp; test: Test C preemergence; format: in vivo, Amaranthus rudis; details: for Waterhemp plant response rating (0 to 100): Preemergence, visual rating after 13 to 15 d
From the text: (§2) Seeds of plant species selected from blackgrass (Alopecurus myosuroides), ryegrass, Italian (Italian ryegrass, Lolium multiflorum), wheat (winter wheat, Triticum aestivum), galium (catchweed bedstraw, Galium aparine), corn (Zea mays), crabgrass, large (large crabgrass, Digitaria sanguinalis), foxtail, giant, (giant foxtail, Setaria faberii), johnsongrass (Sorghum halepense), lambsquarters (Chenopodium album), morningglory (Ipomoea coccinea), nutsedge, yellow (yellow nutsedge, Cyperus esculentus), pigweed (Amaranthus retroflexus), ragweed (common ragweed, Ambrosia elatior), soybean (Glycine max), barnyardgrass (Echinochloa crus-galli), oilseed rape (Brassica napus), waterhemp (common waterhemp, Amaranthus rudis), and velvetleaf (Abutilon theophrasti) were planted into a blend of loam soil and sand and treated preemergence with test chemicals formulated in a non-phytotoxic solvent mixture which included a surfactant. At the same time, plants selected from these crop and weed species and also chickweed (common chickweed, Stellaria media), oat, wild (wild oat, Avena fatua), and kochia (Kochia scoparia), were planted in pots containing Sunshine Redi-Earth® planting medium comprising spaghnum peat moss, vermiculite, starter nutrients and dolomitic limestone and treated with postemergence applications of test chemicals formulated in the same manner. Plants ranged in height from 2 to 18 cm (1- to 4-leaf stage) for postemergence treatments. […] A dash (-) response means no test result.

[12] = tested on: nutsedge, yellow; test: Test C preemergence; format: in vivo, Cyperus esculentus; details: for Plant response rating (scale of 0 to 100 where 0 is no effect and 100 is complete control): Nutsedge, Yellow, preemergence; for Nutsedge, Yellow plant response rating (0 to 100): Preemergence, visual rating after 13 to 15 d
From the text: as §2

[13] = tested on: pigweed; test: Test C preemergence; format: in vivo, Amaranthus retroflexus; details: for Plant response rating (scale of 0 to 100 where 0 is no effect and 100 is complete control): Pigweed, preemergence; for Pigweed plant response rating (0 to 100): Preemergence, visual rating after 13 to 15 d
From the text: as §2

[14] = 16 g ai/ha, 0 is no effect, 100 is complete control

SMILES: FC(F)(F)COc1nc(-c2ccc(Cl)cc2)nn1Cc1ccnc(C(F)(F)F)c1 [Compound 31]
- Plant response rating (0 to 100), Wheat, Winter [1, 14]: 20
- Plant response rating: Wheat, Winter ([1]; 62 g ai/ha): 20
- Plant response rating: Wheat, Winter ([1]; 125 g ai/ha): 30
- Plant response rating (0 to 100), Wheat, Spring [2, 14]: 30
- Plant response rating: Wheat, Spring ([2]; 62 g ai/ha): 40
- Plant response rating: Wheat, Spring ([2]; 125 g ai/ha): 45
- Plant response rating (0 to 100), Lambsquarters [3, 14]: 75
- Plant response rating: Lambsquarters ([3]; 62 g ai/ha): 85
- Plant response rating: Lambsquarters ([3]; 125 g ai/ha): 90
- Plant response rating (0 to 100), Oilseed Rape [4, 14]: 10
- Plant response rating: Oilseed Rape ([4]; 62 g ai/ha): 35
- Plant response rating: Oilseed Rape ([4]; 125 g ai/ha): 35
- Plant response rating, Galium ([5]; 125 g ai/ha): 70
- Plant response rating, Galium ([5]; 500 g ai/ha): 90
- Plant response rating: Galium ([6]; 16 g ai/ha): 70
- Plant response rating: Galium ([6]; 31 g ai/ha): 75
- Plant response rating: Galium ([6]; 62 g ai/ha): 80
- Plant response rating: Galium ([6]; 125 g ai/ha): 90
- Plant response rating: Wheat, Winter ([7]; 16 g ai/ha): 20
- Plant response rating: Wheat, Winter ([7]; 31 g ai/ha): 20
- Plant response rating: Wheat, Winter ([7]; 62 g ai/ha): 20
- Plant response rating: Wheat, Winter ([7]; 125 g ai/ha): 30
- Plant response rating: Wheat, Spring ([8]; 16 g ai/ha): 30
- Plant response rating: Wheat, Spring ([8]; 31 g ai/ha): 35
- Plant response rating: Wheat, Spring ([8]; 62 g ai/ha): 40
- Plant response rating: Wheat, Spring ([8]; 125 g ai/ha): 45
- Plant response rating: Barley, Winter ([9]; 16 g ai/ha): 25
- Plant response rating: Barley, Winter ([9]; 31 g ai/ha): 35
- Plant response rating: Barley, Winter ([9]; 62 g ai/ha): 40
- Plant response rating: Barley, Winter ([9]; 125 g ai/ha): 50
- Plant response rating: Barley, Spring ([10]; 16 g ai/ha): 35
- Plant response rating: Barley, Spring ([10]; 31 g ai/ha): 45
- Plant response rating: Barley, Spring ([10]; 62 g ai/ha): 45
- Plant response rating: Barley, Spring ([10]; 125 g ai/ha): 50
- Waterhemp plant response rating (0 to 100) ([11]; 31 g ai/ha): 100
- Waterhemp plant response rating (0 to 100) ([11]; 62 g ai/ha): 100
- Plant response rating (scale of 0 to 100 where 0 is no effect and 100 is complete control) ([11]; Waterhemp, preemergence, 250 g ai/ha): 100
- Plant response rating (scale of 0 to 100 where 0 is no effect and 100 is complete control) ([12]; 125 g ai/ha): 5
- Plant response rating (scale of 0 to 100 where 0 is no effect and 100 is complete control) ([12]; 250 g ai/ha): 5
- Nutsedge, Yellow plant response rating (0 to 100) ([12]; 31 g ai/ha): 0
- Nutsedge, Yellow plant response rating (0 to 100) ([12]; 62 g ai/ha): 0
- Plant response rating (scale of 0 to 100 where 0 is no effect and 100 is complete control) ([13]; 125 g ai/ha): 100
- Plant response rating (scale of 0 to 100 where 0 is no effect and 100 is complete control) ([13]; 250 g ai/ha): 100
- Pigweed plant response rating (0 to 100) ([13]; 31 g ai/ha): 98
- Pigweed plant response rating (0 to 100) ([13]; 62 g ai/ha): 100
